Source: publication PMC9307952, “Lipoate protein ligase B primarily recognizes the C8-phosphopantetheine arm of its donor substrate and weakly binds the acyl carrier protein” (The Journal of Biological Chemistry, 2022)

Key:
MmLipT2 (mice LipT2) = MmLipT2 (mice LipT2) (Mus musculus, UniProt Q9D009); conditions: 75 μM C8-CoA, 25 μM GcvH, 50 mM Tris-HCl, 500 mM NaCl, pH 8.0, 37 °C
E. coli LipB (EcLipB) = E. coli LipB (EcLipB) (Escherichia coli, UniProt P60720); conditions: CoA:LipB 10:1 (STD, 283 K) or 8:1 (31P, 298 K), 50 mM Tris, 200 mM NaCl, pH 7.8
Sequence of E. coli LipB (EcLipB) (P60720 whole entry): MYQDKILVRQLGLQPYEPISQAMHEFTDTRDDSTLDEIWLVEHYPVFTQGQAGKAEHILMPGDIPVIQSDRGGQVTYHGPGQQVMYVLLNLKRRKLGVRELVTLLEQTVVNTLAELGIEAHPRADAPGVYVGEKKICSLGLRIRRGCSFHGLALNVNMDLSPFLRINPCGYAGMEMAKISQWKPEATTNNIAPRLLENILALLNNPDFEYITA

Sequence of MmLipT2 (mice LipT2) (Q9D009 whole entry): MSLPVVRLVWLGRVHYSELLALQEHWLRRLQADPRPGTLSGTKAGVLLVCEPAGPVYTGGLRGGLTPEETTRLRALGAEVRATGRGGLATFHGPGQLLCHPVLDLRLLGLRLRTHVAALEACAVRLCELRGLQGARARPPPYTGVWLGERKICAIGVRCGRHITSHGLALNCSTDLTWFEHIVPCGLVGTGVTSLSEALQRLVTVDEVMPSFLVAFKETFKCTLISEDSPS

Structure (SMILES) | octanoyl transfer to E. coli GcvH, SDS-PAGE band shift and HPLC (MmLipT2 (mice LipT2)) | 1H STD NMR; 31P NMR (E. coli LipB (EcLipB))
CCCCCCCC(=O)SCCNC(=O)CCNC(=O)[C@H](O)C(C)(C)COP(=O)(O)OP(=O)(O)OC[C@H]1O[C@@H](n2cnc3c(N)ncnc32)[C@H](O)[C@@H]1OP(=O)(O)O [C8-CoA] | MmLipT2 also successfully converted E. coli GcvH using C8-CoA as a donor substrate | 
CC(C)(COP(=O)(O)OP(=O)(O)OC[C@H]1O[C@@H](n2cnc3c(N)ncnc32)[C@H](O)[C@@H]1OP(=O)(O)O)[C@@H](O)C(=O)NCCC(=O)NCCS [CoA] |  | suggesting binding of the adenosine ring
